Patent publication EP0341019A2, “Polyether antibiotic” (priority 1988, dated 1989)
Values joined by “and” are separate entries in the source; they are usually repeats but may differ in a detail not shown here. Equal values may be shown once. Positions of bridges follow the written chain, without caps; N, C: chain ends. Non-standard residues stand in square brackets, D forms with d. Residues, ends and D or L forms follow the SMILES beside them. *: point of attachment. Ileψ(thiazoline)Cys = CC[C@H](C)[C@H](N)C1=N[C@H](C(=O)*)CS1; dOrn = NCCC[C@@H](N)C(=O)O

Experiments:
[1] = tested on: Eimeria acervulina Strain 59 And E. tenella Strain 155; test: anticoccidial feed test in infected chickens, ionophore-sensitive strains; format: in vivo; conditions: A82810 0 ppm
[2] = tested on: Eimeria maxima Strain FS-177; test: anticoccidial feed test in infected chickens, ionophore-sensitive strain; format: in vivo; conditions: A82810 0 ppm
[3] = tested on: Eimeria acervulina Strain FS-273 and E. tenella Strain FS-456; test: anticoccidial feed test in infected chickens, ionophore-resistant strains; format: in vivo; conditions: Table XX, A82810 0 ppm
[4] = tested on: Eimeria acervulina H & C and Eimeria tenella Wis; test: anticoccidial feed test in infected chickens, ionophore-sensitive strains; format: in vivo; conditions: Table XIX, A82810 0 ppm
[5] = tested on: Eimeria maxima Strain FS-410; test: anticoccidial feed test in infected chickens, ionophore-resistant strain; format: in vivo; conditions: A82810 0 ppm
[6] = tested on: Eimeria acervulina Strain FS-316 And E. tenella Strain FS-456; test: anticoccidial feed test in infected chickens, ionophore-resistant strains; format: in vivo; conditions: A82810 0 ppm
E. maxima Strain LIT-626 = test: anticoccidial feed test in infected chickens, ionophore-resistant strain; format: in vivo; conditions: Table XIII; A82810 0 ppm; Benzeneamine ppm r4-r7: 8,10,12,14
[7] = tested on: E. acervulina Strain FS-316; test: as above; format: in vivo; conditions: Table X, A82810 0 ppm
[8] = tested on: culture A82810.1 (Actinomadura fibrosa sp. nov. NRRL 18348); test: antibiotic sensitivity disc test on seeded ISP No. 2 agar; format: cell-based; parameters: key to Resistance to: (A82810.1): Resistance was scored as (+) when no zone of inhibition was observed; (-) when a zone of inhibition was observed; conditions: for resistance / sensitivity of culture A82810.1 to the antibiotic: cephalothin 30 µg, lincomycin 2 µg, penicillin G 10 units, rifampin 5 µg, lysozyme 50 µg/mL, bacitracin 10 units, gentamicin 10 µg, neomycin 30 µg, oleandomycin 15 µg, streptomycin 10 µg, tetracycline 30 µg, tobramycin 10 µg, vancomycin 30 µg; for Resistance to: (A82810.1): Oleandomycin 16 µg, Penicillin G 10 units
Protocol: (§1) Resistance to antibiotics was measured by padding antibiotic sensitivity discs onto the surface of seeded ISP No. 2 agar plates. Resistance was scored as (+) when no zone of inhibition was observed and as (-) when a zone of inhibition was observed.

A. verrucosospora = test: antibiotic sensitivity disc test (species comparison); format: cell-based; parameters: key: Resistance was scored as (+) when no zone of inhibition was observed; (-) when a zone of inhibition was observed; conditions: Oleandomycin 16 µg; Penicillin G 10 units
Protocol: as §1

[9] = Benzeneamine ppm r4-r6: 8,12,16
[10] = Benzeneamine ppm r10-r12: 8,12,16

Compound: O=[N+]([O-])c1cc([N+](=O)[O-])c(Nc2ccc(Br)c3ccccc23)c(C(F)(F)F)c1 [4-Bromo-N-[2,4-dinitro-6-trifluoromethyl)phenyl]-1-naphthaleneamine]
- WEIGHT GAIN, PERCENT OF CONTROL ([1]; Table XXIV, 4-Bromo naphthaleneamine ppm r4-r7: 4,8,12,16): 73% OF CONTROL and 66% OF CONTROL and 72% OF CONTROL and 67% OF CONTROL
- AVERAGE INTESTINAL LESION SCORES ([1]; Table XXIV, 4-Bromo naphthaleneamine ppm r11-r14: 4,8,12,16): 6.2 and 6.9 and 6.6 and 3.8
- AVERAGE CECAL LESION SCORES ([1]; Table XXIV, 4-Bromo naphthaleneamine ppm r18-r21: 4,8,12,16): 2.9 and 3.5 and 3.0

Compound: O=[N+]([O-])c1cc([N+](=O)[O-])c(Nc2ccc(Cl)c3ccccc23)c(C(F)(F)F)c1 [4-chloro-N-[2,4-dinitro-6-(trifluoromethyl)phenyl]-1-naphthaleneamine]
- WEIGHT GAIN, PERCENT OF CONTROL ([2]; Table XXIII, 4-chloro naphthaleneamine ppm r11-r14: 4,8,12,16): 87% OF CONTROL and 80% OF CONTROL and 85% OF CONTROL and 84% OF CONTROL
- WEIGHT GAIN, PERCENT OF CONTROL ([1]; Table XXII, 4-chloro naphthaleneamine ppm r11-r14: 4,8,12,16): 80% OF CONTROL and 78% OF CONTROL and 92% OF CONTROL

Compound: O=[N+]([O-])c1cc([N+](=O)[O-])c(Nc2ccc(OC(F)(F)C(F)F)cc2)c(C(F)(F)F)c1 [Benzeneamine, 2,4-Dinitro-N-[4-(1,1,2,2-tetrafluoroethoxy)phenyl]-6-(trifluoromethyl)benzeneamine]
- LESION SCORE [3, 9]: 9.4 and 8.4 and 8.0
- WEIGHT GAIN, PERCENT OF CONTROL [3, 10]: 70% OF CONTROL and 72% OF CONTROL and 74% OF CONTROL
- PERCENT REDUCTION IN OOCYST PRODUCTION ([3]; Benzeneamine ppm r16-r18: 8,12,16): 17% and 18% and 20%
- AVERAGE INTESTINAL LESION SCORES [4, 9]: 6.0 and 5.1 and 4.7
- WEIGHT GAIN, PERCENT OF CONTROL [4, 10]: 62% OF CONTROL and 64% OF CONTROL and 69% OF CONTROL
- INTESTINAL LESION SCORE ([2]; Table XI, Benzeneamine ppm r4-r6: 8,12,16): 3.6 and 3.9 and 3.3
- WEIGHT GAIN, PERCENT OF CONTROL ([2]; Table XI, Benzeneamine ppm r10-r12: 8,12,16): 77% OF CONTROL and 84% OF CONTROL and 87% OF CONTROL
- AVERAGE INTESTINAL LESION SCORES ([2]; Table XII, Benzeneamine ppm r4-r6: 8,12,16): 2.6 and 2.2 and 2.3
- WEIGHT GAIN, PERCENT OF CONTROL ([2]; Table XII, Benzeneamine ppm r10-r12: 8,12,16): 79% OF CONTROL and 88% OF CONTROL and 102% OF CONTROL
- TOTAL LESION SCORE ([1]; Table VI, Benzeneamine ppm r4-r7: 4,8,12,16): 12.4 and 10.9 and 10.4 and 10.8
- WEIGHT GAIN, PERCENT OF CONTROL ([1]; Table VI, Benzeneamine ppm r11-r14: 4,8,12,16): 75% OF CONTROL and 68% OF CONTROL and 73% OF CONTROL and 76% OF CONTROL
- WEIGHT GAIN, PERCENT OF CONTROL ([5]; Table XIV, Benzeneamine ppm r4-r7: 8,10,12,14): 90% OF CONTROL and 88% OF CONTROL and 92% OF CONTROL
- AVERAGE INTESTINAL LESION SCORES ([5]; Table XIV, Benzeneamine ppm r11-r14: 8,10,12,14): 3.8 and 3.7 and 3.3
- WEIGHT GAIN, PERCENT OF CONTROL ([5]; Table XV, Benzeneamine ppm r4-r7: 9,10,11,12): 90% OF CONTROL and 94% OF CONTROL and 87% OF CONTROL and 84% OF CONTROL
- AVERAGE INTESTINAL LESION SCORES ([5]; Table XV, Benzeneamine ppm r11-r14: 9,10,11,12): 4.0 and 3.8 and 3.7
- WEIGHT GAIN, PERCENT OF CONTROL ([5]; Table XVI, Benzeneamine ppm r4-r8: 16,18,20,22,24): 71% OF CONTROL and 76% OF CONTROL and 81% OF CONTROL and 79% OF CONTROL and 83% OF CONTROL
- AVERAGE INTESTINAL LESION SCORES ([5]; Table XVI, Benzeneamine ppm r12-r16: 16,18,20,22,24): 4.0 and 3.1 and 3.4 and 3.7 and 2.6
- LESION SCORE ([5]; Table XVII, Benzeneamine ppm r4-r6: 8,12,16): 3.3 and 2.9 and 2.4
- WEIGHT GAIN, PERCENT OF CONTROL ([5]; Table XVII, Benzeneamine ppm r10-r12: 8,12,16): 68% OF CONTROL and 59% OF CONTROL and 74% OF CONTROL
- INTESTINAL LESION SCORE ([5]; Table XVIII, Benzeneamine ppm r4-r6: 8,12,16): 4.0 and 3.9 and 3.3
- WEIGHT GAIN, PERCENT OF CONTROL ([5]; Table XVIII, Benzeneamine ppm r10-r12: 8,12,16): 91% OF CONTROL and 95% OF CONTROL and 93% OF CONTROL
- WEIGHT GAIN, PERCENT OF CONTROL ([6]; Table IX, Benzeneamine ppm r4-r8: 16,18,20,22,24): 91% OF CONTROL and 84% OF CONTROL and 88% OF CONTROL and 85% OF CONTROL
- AVERAGE CECAL LESION SCORES ([6]; Table IX, Benzeneamine ppm r20-r24: 16,18,20,22,24): 2.9 and 3.0 and 2.6 and 1.6
- WEIGHT GAIN, PERCENT OF CONTROL ([6]; Table VII, Benzeneamine ppm r11-r14: 4,8,12,16): 90% OF CONTROL and 94% OF CONTROL and 88% OF CONTROL and 87% OF CONTROL
- WEIGHT GAIN, PERCENT OF CONTROL ([6]; Table VIII, Benzeneamine ppm r4-r7: 8,10,12,14): 76% OF CONTROL and 77% OF CONTROL and 75% OF CONTROL and 70% OF CONTROL
- AVERAGE INTESTINAL LESION SCORES ([6]; Table VIII, Benzeneamine ppm r11-r14: 8,10,12,14): 5.9 and 4.8 and 4.5
- AVERAGE CECAL LESION SCORES ([6]; Table VIII, Benzeneamine ppm r18-r21: 8,10,12,14): 3.3 and 3.2 and 3.1 and 2.8
- WEIGHT GAIN, PERCENT OF CONTROL (E. maxima Strain LIT-626): 94% OF CONTROL and 99% OF CONTROL and 93% OF CONTROL and 98% OF CONTROL
- WEIGHT GAIN, PERCENT OF CONTROL ([7]; Benzeneamine ppm r4-r7: 4,8,12,16): 74% OF CONTROL and 71% OF CONTROL and 82% OF CONTROL and 75% OF CONTROL
- AVERAGE INTESTINAL LESION SCORES ([7]; Benzeneamine ppm r11-r14: 4,8,12,16): 6.9 and 8.4 and 6.3 and 5.8

Compound: CC[C@H](C)[C@H](N)C1=N[C@H](C(=O)N[C@@H](CC(C)C)C(=O)N[C@H](CCC(=O)O)C(=O)N[C@H](C(=O)N[C@H]2CCCCNC(=O)[C@H](CC(N)=O)NC(=O)[C@@H](CC(=O)O)NC(=O)[C@H](Cc3cnc[nH]3)NC(=O)[C@@H](Cc3ccccc3)NC(=O)[C@H]([C@@H](C)CC)NC(=O)[C@@H](CCCN)NC2=O)[C@@H](C)CC)CS1 [bacitracin] ({Ileψ(thiazoline)Cys}-L[dE]IK[dOrn]I[dF]H[dD]N; lactam 4-C)
- resistance / sensitivity of culture A82810.1 to the antibiotic [8]: sensitive

Compound: CC(=O)OCC1=C(C(=O)O)N2C(=O)[C@@H](NC(=O)Cc3cccs3)[C@H]2SC1 [cephalothin]
- resistance / sensitivity of culture A82810.1 to the antibiotic [8]: resistant

Compound: CCC[C@@H]1C[C@@H](C(=O)N[C@@H]([C@H]2O[C@H](SC)[C@H](O)[C@@H](O)[C@H]2O)[C@@H](C)O)N(C)C1 [lincomycin]
- resistance / sensitivity of culture A82810.1 to the antibiotic [8]: resistant

Compound: CO[C@H]1C[C@H](O[C@H]2[C@H](C)[C@@H](O[C@@H]3O[C@H](C)C[C@H](N(C)C)[C@H]3O)[C@@H](C)C[C@@]3(CO3)C(=O)[C@H](C)[C@@H](O)[C@@H](C)[C@@H](C)OC(=O)[C@@H]2C)O[C@@H](C)[C@@H]1O [oleandomycin]
- Resistance to: (A. verrucosospora) (A. verrucosospora): +
- Resistance to: (A82810.1) [8]: -
- resistance / sensitivity of culture A82810.1 to the antibiotic [8]: sensitive

Compound: CC1(C)S[C@@H]2[C@H](NC(=O)Cc3ccccc3)C(=O)N2[C@H]1C(=O)O [penicillin G]
- Resistance to: (A. verrucosospora) (A. verrucosospora): -
- Resistance to: (A82810.1) [8]: +
- resistance / sensitivity of culture A82810.1 to the antibiotic [8]: resistant

Compound: CO[C@H]1/C=C/O[C@@]2(C)Oc3c(C)c(O)c4c(O)c(c(/C=N/N5CCN(C)CC5)c(O)c4c3C2=O)NC(=O)/C(C)=C\C=C\[C@H](C)[C@H](O)[C@@H](C)[C@@H](O)[C@@H](C)[C@H](OC(C)=O)[C@@H]1C [rifampin]
- resistance / sensitivity of culture A82810.1 to the antibiotic [8]: resistant

Compound: [H]/N=C(/N)N[C@H]1[C@H](O)[C@@H](O)[C@H](O[C@@H]2O[C@@H](C)[C@](O)(C=O)[C@H]2O[C@@H]2O[C@@H](CO)[C@H](O)[C@@H](O)[C@@H]2NC)[C@@H](N/C(N)=N\[H])[C@@H]1O [streptomycin]
- resistance / sensitivity of culture A82810.1 to the antibiotic [8]: sensitive

Compound: NC[C@H]1O[C@H](O[C@H]2[C@H](O)[C@@H](O[C@H]3O[C@H](CO)[C@@H](O)[C@H](N)[C@H]3O)[C@H](N)C[C@@H]2N)[C@H](N)C[C@@H]1O [tobramycin]
- resistance / sensitivity of culture A82810.1 to the antibiotic [8]: sensitive

Compound: CN[C@H](CC(C)C)C(=O)N[C@H]1C(=O)N[C@@H](CC(N)=O)C(=O)N[C@H]2C(=O)N[C@H]3C(=O)N[C@H](C(=O)N[C@H](C(=O)O)c4cc(O)cc(O)c4-c4cc3ccc4O)[C@H](O)c3ccc(c(Cl)c3)Oc3cc2cc(c3O[C@@H]2O[C@H](CO)[C@@H](O)[C@H](O)[C@H]2O[C@H]2C[C@](C)(N)[C@H](O)[C@H](C)O2)Oc2ccc(cc2Cl)[C@H]1O [vancomycin]
- resistance / sensitivity of culture A82810.1 to the antibiotic [8]: sensitive

Compound: gentamicin
- resistance / sensitivity of culture A82810.1 to the antibiotic [8]: sensitive

Compound: neomycin
- resistance / sensitivity of culture A82810.1 to the antibiotic [8]: sensitive
